Source: PubChem BioAssay AID330 (DTP/NCI, 2004)
Toxic doses and inconclusive results are not listed. How the source made its calls: active means survival T/C of 150% or more; inactive means T/C below 125% in these data.

Test system: P388 leukemia ip, CD2F1 mice, survival T/C
Experiment: NCI In Vivo Anticancer Drug Screen. Data for tumor model P388 Leukemia (intraperitoneal) in CD2F1 (CDF1) mice
Conditions: endpoint: median survival time, higher = longer survival
How it was run: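 Mice carrying the transplanted tumor received test compound or vehicle. Survival was recorded in each group, and the value is the treated-group measurement divided by that of the vehicle-treated control group.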

[1] = dose: 60.0 mg/kg/injection, schedule: Q01DX005 (ip), vehicle: saline with Tween-80
[2] = dose: 120.0 mg/kg/injection, schedule: Q01DX005 (ip), vehicle: saline with Tween-80
[3] = dose: 240.0 mg/kg/injection, schedule: Q01DX005 (ip), vehicle: saline with Tween-80
[4] = dose: 50.0 mg/kg/injection, schedule: Q01DX009 (ip), vehicle: saline with Tween-80
[5] = dose: 100.0 mg/kg/injection, schedule: Q01DX009 (ip), vehicle: saline with Tween-80
[6] = dose: 200.0 mg/kg/injection, schedule: Q01DX009 (ip), vehicle: saline with Tween-80
[7] = dose: 50.0 mg/kg/injection, schedule: Q01DX009 (ip), vehicle: saline
[8] = dose: 100.0 mg/kg/injection, schedule: Q01DX009 (ip), vehicle: saline
[9] = dose: 200.0 mg/kg/injection, schedule: Q01DX009 (ip), vehicle: saline
[10] = dose: 50.0 mg/kg/injection, schedule: Q01DX005 (ip), vehicle: saline with Tween-80
[11] = dose: 100.0 mg/kg/injection, schedule: Q01DX005 (ip), vehicle: saline with Tween-80
[12] = dose: 200.0 mg/kg/injection, schedule: Q01DX005 (ip), vehicle: saline with Tween-80
[13] = dose: 25.0 mg/kg/injection, schedule: Q01DX009 (ip), vehicle: saline with Tween-80
[14] = dose: 50.0 mg/kg/injection, schedule: Q01DX005 (ip), vehicle: Klucel (hydroxypropylcellulose) (HPC)
[15] = dose: 100.0 mg/kg/injection, schedule: Q01DX005 (ip), vehicle: Klucel (hydroxypropylcellulose) (HPC)
[16] = dose: 200.0 mg/kg/injection, schedule: Q01DX005 (ip), vehicle: Klucel (hydroxypropylcellulose) (HPC)

Measured: T/C

CSc1nc(SC)c2c(C)cn(COCCOC(=O)c3ccccc3)c2n1
inactive: dose: 100.0 mg/kg/injection, schedule: Q01DX001 (ip), vehicle: saline with Tween-80 104 % of control | dose: 200.0 mg/kg/injection, schedule: Q01DX001 (ip), vehicle: saline with Tween-80 100 % of control | dose: 400.0 mg/kg/injection, schedule: Q01DX001 (ip), vehicle: saline with Tween-80 91 % of control

CS(=O)(=O)N/N=C(\N)Oc1ccc(Cl)cc1Cl
inactive: [1] 97 % of control | [2] 93 % of control | [3] 88 % of control

O=C1CCC2(ON=C(c3ccccc3)C2Br)O1 (stereo not given)
inactive: [4] 116 % of control | [5] 108 % of control | [6] 116 % of control

CN1C(c2ccccc2)CC(C)(O)CC1c1ccccc1 (stereo not given)
inactive: [1] 97 % of control | [2] 98 % of control

CCCCCOC(CN(C)C)C(Cl)(Cl)Cl (stereo not given)
inactive: dose: 50.0 mg/kg/injection, schedule: Q01DX009 (ip), vehicle: Klucel (hydroxypropylcellulose) (HPC) 100 % of control | dose: 100.0 mg/kg/injection, schedule: Q01DX009 (ip), vehicle: Klucel (hydroxypropylcellulose) (HPC) 100 % of control | dose: 200.0 mg/kg/injection, schedule: Q01DX009 (ip), vehicle: Klucel (hydroxypropylcellulose) (HPC) 101 % of control

Cc1cccc(C2(Br)C(=O)c3ccccc3C2=O)c1
inactive: dose: 100.0 mg/kg/injection, schedule: Q04DX002 (ip), vehicle: saline 102 % of control | dose: 200.0 mg/kg/injection, schedule: Q04DX002 (ip), vehicle: saline 103 % of control | dose: 400.0 mg/kg/injection, schedule: Q04DX002 (ip), vehicle: saline 102 % of control

CC1N=C(SCC(=O)c2ccc(Cl)cc2)N2C(C)N=C(SCC(=O)c3ccc(Cl)cc3)N12 (stereo not given)
inactive: [7] 98 % of control | [8] 90 % of control | [9] 90 % of control

CC=C1CN(C)C2Cc3c([nH]c4ccccc34)C(=O)CC1C2C(=O)OC (stereo not given)
inactive: dose: 7.5 mg/kg/injection, schedule: Q01DX009 (ip), vehicle: saline + alcohol 107 % of control | dose: 15.0 mg/kg/injection, schedule: Q01DX009 (ip), vehicle: saline + alcohol 116 % of control | dose: 30.0 mg/kg/injection, schedule: Q01DX009 (ip), vehicle: saline + alcohol 106 % of control

N/C(=N\OC(=O)NC(Cl)=C(Cl)Cl)c1cc(C(F)(F)F)cc(C(F)(F)F)c1
inactive: [10] 102 % of control | [11] 102 % of control | [12] 100 % of control

CCC1=NC(C)(C)CO1
inactive: [7] 104 % of control | [8] 97 % of control | [9] 97 % of control

O=CN(CC(=O)O)CC(=O)O
inactive: dose: 50.0 mg/kg/injection, schedule: Q01DX005 (ip), vehicle: saline 100 % of control | dose: 100.0 mg/kg/injection, schedule: Q01DX005 (ip), vehicle: saline 100 % of control | dose: 200.0 mg/kg/injection, schedule: Q01DX005 (ip), vehicle: saline 102 % of control

O=C(CBr)c1cccc([N+](=O)[O-])c1
inactive: dose: 6.25 mg/kg/injection, schedule: Q01DX009 (ip), vehicle: saline with Tween-80 101 % of control | dose: 12.5 mg/kg/injection, schedule: Q01DX009 (ip), vehicle: saline with Tween-80 100 % of control | [13] 109 % of control | [4] 100 % of control

COc1ccc(NC(=O)Nc2ccc(C#N)cc2)cc1
inactive: [1] 101 % of control | [2] 93 % of control | [3] 93 % of control

NC(=O)N/N=C/Cn1ccc(=O)n(C/C=N/NC(N)=O)c1=O
inactive: [14] 91 % of control | [15] 87 % of control | [16] 87 % of control

O=Cc1cc2c(Cl)nccc2o1
inactive: dose: 60.0 mg/kg/injection, schedule: Q01DX005 (ip), vehicle: Klucel (hydroxypropylcellulose) (HPC) 105 % of control | dose: 120.0 mg/kg/injection, schedule: Q01DX005 (ip), vehicle: Klucel (hydroxypropylcellulose) (HPC) 102 % of control | dose: 240.0 mg/kg/injection, schedule: Q01DX005 (ip), vehicle: Klucel (hydroxypropylcellulose) (HPC) 104 % of control

NC(=O)CC1(O)c2ccccc2C(=O)c2ccccc21
inactive: dose: 3.13 mg/kg/injection, schedule: Q01DX009 (ip), vehicle: clinical formulation 97 % of control | dose: 6.25 mg/kg/injection, schedule: Q01DX009 (ip), vehicle: clinical formulation 104 % of control | dose: 12.5 mg/kg/injection, schedule: Q01DX009 (ip), vehicle: clinical formulation 97 % of control | dose: 25.0 mg/kg/injection, schedule: Q01DX009 (ip), vehicle: clinical formulation 94 % of control | dose: 50.0 mg/kg/injection, schedule: Q01DX009 (ip), vehicle: clinical formulation 97 % of control | dose: 100.0 mg/kg/injection, schedule: Q01DX009 (ip), vehicle: clinical formulation 100 % of control

CC(Nc1ccc(Cl)cc1)S(=O)(=O)O (stereo not given)
inactive: [7] 106 % of control | [8] 100 % of control | [9] 106 % of control

COC1=C[C@@H](C)[C@@H]2C[C@H]3O[C@@H](OC4OC(CO)C(O)C(O)C4O)C[C@H]4C(C)=C(OC)C(=O)[C@H]([C@@]2(C)C1=O)[C@@]34C (stereo not given in full)
inactive: dose: 4.0 mg/kg/injection, schedule: Q01DX005 (ip), vehicle: Klucel (hydroxypropylcellulose) (HPC) 96 % of control | dose: 8.0 mg/kg/injection, schedule: Q01DX005 (ip), vehicle: Klucel (hydroxypropylcellulose) (HPC) 94 % of control | dose: 16.0 mg/kg/injection, schedule: Q01DX005 (ip), vehicle: Klucel (hydroxypropylcellulose) (HPC) 103 % of control

CSC(=S)N(C)N
inactive: dose: 100.0 mg/kg/injection, schedule: Q04DX003 (ip), vehicle: saline with Tween-80 111 % of control | dose: 200.0 mg/kg/injection, schedule: Q04DX003 (ip), vehicle: saline with Tween-80 105 % of control | dose: 400.0 mg/kg/injection, schedule: Q04DX003 (ip), vehicle: saline with Tween-80 100 % of control

C=CCNC(=S)N/N=C/c1nccc(-c2ccccc2)c1C
inactive: [13] 112 % of control | [4] 86 % of control

CCSC(C(O)C(O)C(O)C(O)CO)n1cnc2c(SC)ncnc21 (stereo not given)
inactive: dose: 25.0 mg/kg/injection, schedule: Q01DX009 (ip), vehicle: water 99 % of control | dose: 50.0 mg/kg/injection, schedule: Q01DX009 (ip), vehicle: water 95 % of control | dose: 100.0 mg/kg/injection, schedule: Q01DX009 (ip), vehicle: water 94 % of control | dose: 200.0 mg/kg/injection, schedule: Q01DX009 (ip), vehicle: water 99 % of control | dose: 400.0 mg/kg/injection, schedule: Q01DX009 (ip), vehicle: water 97 % of control

CCOC(=O)C1=C(C)NC(CO)=C(C(=O)OCC)C1c1cccc([N+](=O)[O-])c1 (stereo not given)
inactive: [10] 94 % of control | [11] 95 % of control | [12] 92 % of control

CC[n+]1c(/C=C/c2ccc(N(CCC(=O)O)CCC(=O)O)cc2C)sc2ccccc21
inactive: dose: 12.5 mg/kg/injection, schedule: Q04DX003 (ip), vehicle: saline with Tween-80 99 % of control | dose: 25.0 mg/kg/injection, schedule: Q04DX003 (ip), vehicle: saline with Tween-80 95 % of control | dose: 50.0 mg/kg/injection, schedule: Q04DX003 (ip), vehicle: saline with Tween-80 100 % of control

O=[N+]([O-])c1ccc2oc([N+](=O)[O-])cc2c1
inactive: [14] 101 % of control | [15] 100 % of control | [16] 101 % of control

COc1cc2c(cc1OC)C1C(O)C(OC)C(O)C3=CCN(C2)C31 (stereo not given)
inactive: [7] 100 % of control | [8] 104 % of control | [9] 102 % of control

CN(C)C(C)(C)P(=O)(O)O
inactive: [5] 100 % of control | [6] 100 % of control | dose: 400.0 mg/kg/injection, schedule: Q01DX009 (ip), vehicle: saline with Tween-80 100 % of control

CS(=O)(=O)c1cc(C(F)(F)F)cc([N+](=O)[O-])c1Cl
inactive: [13] 109 % of control | [4] 100 % of control

CCn1c2ccc(N=C=O)cc2c2c3[nH]c(=O)c4cccn4c3ccc21
inactive: [10] 95 % of control | [11] 88 % of control | [12] 86 % of control

CN(C)c1ccc2nc3c(C(=O)O)cc(=O)c(O)c-3oc2c1
inactive: [14] 103 % of control | [15] 108 % of control

CSc1nc(NC2OC(COC(C)=O)C(OC(C)=O)C(OC(C)=O)C2OC(C)=O)c(N=CC=Nc2c(NC3OC(COC(C)=O)C(OC(C)=O)C(OC(C)=O)C3OC(C)=O)nc(SC)[nH]c2=O)c(=O)[nH]1 (stereo not given)
inactive: [1] 89 % of control | [2] 99 % of control | [3] 111 % of control

COC(=O)CC1C(C)=CCC2C(=O)C=C(OC)C(=O)C21C (stereo not given)
inactive: [14] 101 % of control | [15] 101 % of control | [16] 100 % of control
